Reference: paper PMC5507339, “Small-molecule inhibition of pyruvate phosphate dikinase targeting the nucleotide binding site” (PLoS ONE, 2017)
Entries after “also recorded” stand apart in the source; their conditions may differ.

Assays:
[1] = target: T1, PPDK from Flaveria trinervia (Flaveria trinervia, UniProt P22221); assay: biochemical; settings: for IC50: 0.2 μM PPDK, inhibitor 0-200 μM, mean ± standard error; for Residual PPDK activity relative to DMSO-treated controls: inhibitor 100 μM
T1 construct: His10 (N); TEV cleavage site (N); made in house; host or cells: E. coli BL21 (DE3)
T1 sequence (P22221 80-953): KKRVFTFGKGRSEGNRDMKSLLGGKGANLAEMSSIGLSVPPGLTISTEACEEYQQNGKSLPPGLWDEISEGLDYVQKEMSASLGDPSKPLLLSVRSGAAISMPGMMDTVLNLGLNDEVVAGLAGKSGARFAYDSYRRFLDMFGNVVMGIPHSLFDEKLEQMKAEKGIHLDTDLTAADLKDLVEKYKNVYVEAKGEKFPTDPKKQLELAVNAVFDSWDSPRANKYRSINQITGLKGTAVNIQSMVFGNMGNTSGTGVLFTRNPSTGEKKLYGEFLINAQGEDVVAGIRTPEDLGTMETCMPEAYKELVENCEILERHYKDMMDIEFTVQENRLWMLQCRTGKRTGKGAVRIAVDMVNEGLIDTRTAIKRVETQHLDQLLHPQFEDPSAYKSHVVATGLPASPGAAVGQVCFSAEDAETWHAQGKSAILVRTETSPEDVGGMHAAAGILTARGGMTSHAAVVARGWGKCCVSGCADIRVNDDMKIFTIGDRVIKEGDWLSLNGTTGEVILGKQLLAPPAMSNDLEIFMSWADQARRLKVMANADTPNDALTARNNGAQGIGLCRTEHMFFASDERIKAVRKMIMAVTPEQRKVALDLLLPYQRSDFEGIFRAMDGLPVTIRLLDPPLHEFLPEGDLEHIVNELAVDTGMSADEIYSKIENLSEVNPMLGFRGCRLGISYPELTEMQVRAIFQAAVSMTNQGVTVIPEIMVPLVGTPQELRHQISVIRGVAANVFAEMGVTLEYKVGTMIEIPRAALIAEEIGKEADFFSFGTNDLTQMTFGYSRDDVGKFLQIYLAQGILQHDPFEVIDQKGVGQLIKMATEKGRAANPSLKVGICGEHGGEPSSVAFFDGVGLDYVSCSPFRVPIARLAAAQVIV
Method: Heterologous gene expression and purification of the recombinant PPDK were performed as described in [11]. A modified pET-16b vector (Merck, Darmstadt, GER) which contained an N-terminal histidine10 tag, followed by a TEV cleavage site and the sequence encoding for PPDK from Flaveria trinervia (EMBL X75516) was used for heterologous expression in E. coli strain BL21 (DE3). Transformed cells were grown to an OD600 of 0.6–0.8 in 2YT medium at 30°C before expression was induced by the addition of 0.1 mM isopropyl-β-D-1-thiogalactopyranoside. Cells were harvested after over night incubation at 30°C and 180 rpm. Preceding purification, cells were resuspended in lysis buffer (50 mM Tris/HCl pH 7.5, 300 mM NaCl, 10 mM imidazole, 10 mM MgSO4, 10% (w/v) glycerol, 5 mM DTT, 0.002% (w/v) phenylmethanesulfonylfluoride) and disrupted using a cell disruptor (Constant Systems). PPDK was purified using a nickel affinity chromatography column (GE Healthcare, Munich, GER). Purification (50 mM Tris/HCl pH 7.5, 300 mM NaCl, 10 mM MgSO4, 10% (w/v) glycerol, 5 mM DTT) and elution buffer (50 mM Tris/HCl pH 7.5, 300 mM NaCl, 500 mM imidazole, 10 mM MgSO4, 10% (w/v) glycerol, 5 mM DTT) were used for further purification steps. PPDK bound to the column was washed in steps of 50 mM, 150 mM and 200 mM imidazole, before final elution with 500 mM imidazole. Protein-rich fractions were pooled and a PD-10 desalting column (GE Healthcare) was used to change the elution buffer for assay buffer (100 mM Tris/HCl pH 8.0, 10 mM MgCl2, 2.5 mM KH2PO4, 6 mM glucose-6-phosphate, 5 mM NaHCO3, 0.1 mM EDTA, 5 mM DTT). The buffer-exchanged sample was eventually concentrated by ultrafiltration (30 kDa cutoff, Millipore).
Activity of purified PPDK was measured according to Salahas et al., Doyle et al. in a 96 well microtiter plate layout by a coupled spectrophotometrical assay. In this assay, the carboxylation of PEP by PEPC is linked to the oxidation of NADH by NADH-malate dehydrogenase (NADH-MDH). PEP is formed by PPDK via ATP-driven phosphorylation of pyruvate. Eventually, the consumption of one molecule NADH is equivalent to the formation of one molecule of PEP by PPDK. The assay was performed in a sample volume of 100 μL at 30°C in a M200 plate reader (Tecan, Crailsheim, GER). 0.2 μM PPDK were mixed with 0.2 mM NADH, 2.5 mM sodium pyruvate, 0.8 U bacterial PEPC (Sigma-Aldrich, Darmstadt, GER) and 2 U NADH-MDH (Sigma-Aldrich). The reaction mixture was filled up to a total volume of 100 μL per sample with assay buffer (100 mM Tris/HCl pH 8.0, 10 mM MgCl2, 2.5 mM KH2PO4, 6 mM glucose-6-phosphate, 5 mM NaHCO3, 0.1 mM EDTA, 5 mM DTT). PPDK was pre-incubated for 20 min at 30°C to ensure full activity. Inhibitors were dissolved in water free dimethyl sulfoxide (DMSO) with a final concentration of 10 mM and were added prior to adjusting the final sample volume. To account for possible effects of DMSO on PPDK activity, the solvent was added to the controls in an amount equal to the largest DMSO concentration used in the experiments. Incubation time of the final sample mixture including inhibitors and PPDK was 15 min. Initial comparative screening was perfomed using 100 μM of each compound. The absorbance at 340 nm was recorded for 30 s with an interval of 300 ms. […] A four-parameter log-logistic dose-response curve was then globally fitted to the individual replicates using the R software collection and the R package “drc” [28] as proposed by assessment of Akaike’s information criterion (AIC). PPDK was incubated for 10 min with the inhibitors before each measurement. To exclude PEPC or NADH-MDH inhibition by the selected compounds, the initial screening assay was repeated in triplicates for those compounds without adding PPDK and starting the reaction by injection of PEP instead of ATP.

[2] = target: receptor tyrosine kinases; parameters: method as in PMID 16648571; settings: ATP-competitive; cited from earlier work
[3] = system: Zea mays leaf slices; assay: Inhibition of oxygen evolution during C4 photosynthesis, leaf slices, Clark-type O2 electrode; format: cell-based; settings: for inhibition at 20 µg/mL: 20 μg mL^−1; for inhibition at 40 µg/mL: 40 μg mL^−1
Method: Oxygen (O2) evolution, driven by the C4 acid cycle, was measured according to refs [21, 22, 31]. The reaction chamber of a Clark-type O2 electrode (Hansatech, Norfolk, UK) was filled with 1 mL of degassed buffer containing 0.33 M sorbitol, 2.5 mM NaH2PO4, 2.5 mM MgCl2, 25 mM HEPES/KOH pH 7.5, 50 μM MnCl2 and 2.5 mM dithiothreitol (DTT). An area sized approx. 1 cm^2 was cut from a mature leaf of the C4 model plant Zea mays and processed into slices of ∼ 1 mm width. The leaf slices were added to the electrode chamber and the recording of O2 evolution was started while keeping the chamber in the dark. The O2 evolution rate recorded in this period was later substracted from the subsequently recorded rates to account for the electrode drift. Once the system had stabilized, the chamber was illuminated using a Schott KL 1500 electronic light source. Again, the system was given time to stabilize before the C4-driven O2 evolution was initiated by the addition of first NaHCO3 and then pyruvate in final concentrations of 4 mM each. […] All measurements were done in triplicates.
Directly following the measurement, leaf slices were removed from the chamber and transferred to 1 mL of 80% acetone (v/v) for chlorophyll extraction. The samples were kept at 4°C in the dark for 48 h.

[4] = system: Zea mays PPDK; parameters: method as in earlier work; settings: PPDK from leaf extracts; ref 21 (Haines et al.); cited from earlier work

Row | Structure (SMILES) | IC50 [1] | Residual PPDK activity relative to DMSO-treated controls [1] | inhibition at 20 µg/mL [3] | inhibition at 40 µg/mL [3] | further results
1 | Cc1ccc(F)c(NC(=O)Nc2ccc(-c3cccc4[nH]nc(N)c34)cc2)c1 [ABT-869] | 11.2 ± 0.24 µM | below 30% | – | – | IC50 [2]: 4 nM
2 | O=C1NC(=O)C(c2c[nH]c3ccccc23)=C1c1c[nH]c2ccccc12 [BIM IV, bisindolylmaleimide IV] | 0.76 ± 0.13 µM | – | 20% | 36% | –
3 | CN(C)CC1CCn2c(c(C3=C(c4cn(C)c5ccccc45)C(=O)NC3=O)c3ccccc32)C1 (stereo not shown) [BIM XI, bisindolylmaleimide XI] | – | – | – | – | Effect on PPDK activity ([1]; initial screening): did not show any effect; also recorded: no effect
4 | COc1ccc2c(c1)c(C1=C(c3c[nH]c4ccccc34)C(=O)NC1=O)cn2CCCN(C)C [Go6983] | 1.5 ± 0.6 µM | – | 19% | 29% | –
5 | CN1C(=O)C(c2c[nH]c3ccccc23)=C(c2c[nH]c3ccccc23)C1=O [bisindolylmaleimide V] | – | 15% | – | – | –
6 | C=C1CCC[C@H]2[C@](C)(CC3=C(O)C(=O)C=C(OC)C3=O)[C@@H](C)CC[C@]12C [ilimaquinone] | 740 ± 566 µM | – | – | – | IC50 [4]: 292 ± 23 µM
